Each structure is given as a SMILES string. Calls of active or inactive are those of the source. The rule behind the calls is not given here.

Test [1] deals with Trypanosoma brucei brucei. Briefly: Antitrypanosomal activity against TbAT1 knock out and pentamidine-resistant Trypanosoma brucei brucei B48 mutant after 48 hrs by alamar blue assay. Type of test: functional, organism-based. On the technique in general: The colour change of resazurin is a common sign of viable cells or microbes.
For test [2], the system named is Trypanosoma brucei brucei. Briefly: Antitrypanosomal activity against wild type Trypanosoma brucei brucei s427 after 48 hrs by alamar blue assay. It is filed as functional, organism-based. The following applies: s427, 48 h.
Test [3] concerns Trypanosoma brucei brucei. Nature of the test: Antitrypanosomal activity against TbAT1 knock out Trypanosoma brucei brucei mutant after 48 hrs by alamar blue assay. It is filed as functional, organism-based.
Test [4] concerns Trypanosoma brucei brucei. Nature of the test: Resistance factor, ratio of IC50 for TbAT1 knock out Trypanosoma brucei brucei mutant to IC50 for wild type Trypanosoma brucei brucei s427. Type of test: functional.
The subject of test [5] is Trypanosoma brucei brucei. Briefly: Resistance factor, ratio of IC50 for TbAT1 knock out and pentamidine-resistant Trypanosoma brucei brucei B48 mutant to IC50 for wild type Trypanosoma brucei brucei s427. It is filed as functional.
Test [6] relates to Trypanosoma brucei brucei. Briefly: Inhibition of DNA replication in wild type Trypanosoma brucei brucei s427 assessed as kinetoplast disintegrate at IC50 after 24 hrs by DAPI staining visualized by fluorescence microscopy. It is filed as functional, organism-based.

By IC50 is commonly meant the concentration that gives 50% inhibition. As for `NCCCC(N)(C(=O)OCCCNc1nc(N)nc(N)n1)C(F)F` (stereo not drawn), the half-maximal inhibitory concentration (IC50) in test [1], in test [2] and in test [3] was over 100 µM throughout.
For `Nc1nc(N)nc(NCCCO)n1`, the IC50 in test [1], in test [2] and in test [3] was over 100 µM each time.
For `CCn1cc(C(=O)O)c(=O)c2cc(F)c(N3CCN(c4nc(N)nc(N)n4)CC3)cc21`, the IC50 worked out at 27.7 µM in test [1], 5.2 µM in test [2] and 32.7 µM in test [3]. Also, the “Ratio IC50” value amounted to 6.3 in test [4] and 5.3 in test [5]. For the same molecule, in test [6], the outcome was inactive.
With `C[C@@H]1CN(c2c(F)c(N)c3c(=O)c(C(=O)O)cn(C4CC4)c3c2F)C[C@H](C)N1` [SPARFLOXACIN], in test [2], the IC50 was found to be 18.5 µM.
In the case of `CC(C)(C)OC(=O)NCCCC(N)(C(=O)NCCCNc1nc(N)nc(N)n1)C(F)F` (stereo not drawn), the IC50 is over 100 µM in test [1], 355 µM in test [2] and 105 µM in test [3]. Also, in test [4], the “Ratio IC50” value came out at 0.3.
As for `Nc1nc(N)nc(N2CCN(c3cc4c(cc3F)c(=O)c(C(=O)O)cn4C3CC3)CC2)n1`, 4940 µM corresponded to half-maximal inhibition in test [2] (IC50).
As for `C[C@H]1[C@H](OC(=O)CCC(=O)OCCCNc2nc(N)nc(N)n2)O[C@@H]2O[C@@]3(C)CC[C@H]4[C@H](C)CC[C@@H]1[C@@]24OO3`, the IC50 in test [1] is 12.1 µM; in test [2], 4 µM; in test [3] it was 5 µM. The entries for the “Ratio IC50” value in test [4] and in test [5] were 1.2 and 3, respectively.
Consider `CC1COc2c(N3CCN(C)CC3)c(F)cc3c(=O)c(C(=O)NCCCNc4nc(N)nc(N)n4)cn1c23` (stereo not drawn), for which the IC50 is over 100 µM in test [1], 112 µM in test [2] and over 100 µM in test [3].
`NCCCC(N)(C(=O)NCCCNc1nc(N)nc(N)n1)C(F)F` (stereo not drawn): the IC50 in test [1], in test [2] and in test [3] was over 100 µM each time.
The molecule `CCn1cc(C(=O)O)c(=O)c2cc(F)c(N3CCNCC3)cc21` [NORFLOXACIN] came in with an IC50 in test [2] of 39.9 µM. The result in test [6] was Active.
Turning to `NCCCNc1nc(N)nc(N)n1`, the concentration for half-maximal inhibition (IC50) in test [1], in test [2] and in test [3] was over 100 µM each time.
As to `C[C@H]1[C@H](OC(=O)CCC(=O)NCCCNc2nc(N)nc(N)n2)O[C@@H]2O[C@@]3(C)CC[C@H]4[C@H](C)CC[C@@H]1[C@@]24OO3`, the concentration for half-maximal inhibition (IC50) worked out at 7.1 µM in test [1], 2.6 µM in test [2] and 2.9 µM in test [3]. Also, the results for the “Ratio IC50” value in test [4] and in test [5] were 1.1 and 2.7, respectively.
Turning to `Nc1nc(N)nc(NCCCC(N)(C(=O)O)C(F)F)n1` (stereo not drawn), the IC50 in test [2] is over 100 µM.
On to `CC1COc2c(N3CCN(C)CC3)c(F)cc3c(=O)c(C(=O)O)cn1c23` (stereo not drawn) [OFLOXACIN], for which the IC50 in test [2] was over 100 µM.
As to `CC1COc2c(N3CCN(C)CC3)c(F)cc3c(=O)c(C(=O)OCCCNc4nc(N)nc(N)n4)cn1c23` (stereo not drawn), the results for the concentration for half-maximal inhibition (IC50) in test [1], in test [2] and in test [3] were 31.5 µM, 31.6 µM and 35.7 µM, respectively. Besides, the “Ratio IC50” value in test [4] is reported as 1.1; in test [5], 1.
`O=C(O)c1cn(C2CC2)c2cc(N3CCNCC3)c(F)cc2c1=O` [CIPROFLOXACIN]: the IC50 in test [2] came to 17.2 µM.
With `CC(C)(C)OC(=O)NCCCC(N)(C(=O)OCCCNc1nc(N)nc(N)n1)C(F)F` (stereo not drawn), the IC50 in test [1] came out at 888 µM; in test [2] it was 382 µM; in test [3] it was 400 µM. Moreover, the “Ratio IC50” value in test [4] came out at 1; in test [5], 2.3.
With `CCn1cc(C(=O)O)c(=O)c2cc(F)c(N3CCNC(C)C3)c(F)c21` (stereo not drawn) [LOMEFLOXACIN], inhibition in test [2] was half-maximal at 197 µM (IC50).
Take `C[C@H]1[C@H](OC(=O)CCC(=O)O)O[C@@H]2O[C@@]3(C)CC[C@H]4[C@H](C)CC[C@@H]1[C@@]24OO3` [ARTESUNATE]: the results for the half-inhibitory concentration (IC50) in test [1], in test [2] and in test [3] were 27.5 µM, 12.8 µM and 15 µM, respectively. In addition, the “Ratio IC50” value in test [4] is on record as 1.2; in test [5] it was 2.1.

For the origin of these results see ChEMBL document CHEMBL1152793, “Targeted delivery of compounds to Trypanosoma brucei using the melamine motif” (Bioorg Med Chem, 2009).
